Data reported in patent US5023364A, “Phenoxyalkylcarboxylic acid derivatives and process for their preparation” (Kyorin Pharmaceutical Co., Ltd., priority 1987, dated 1991).

Test system: leukotriene D4 -induced bronchoconstriction
Test: Inhibition of bronchoconstriction in guinea pigs (leukotriene D4-induced, modified Konzett-Rossler method)
Assay type: in vivo, Male Hartley guinea pig
Conditions: p.o., 2 hours before leukotriene D4 challenge (3 μg/kg, i.v.)
Method: Inhibition of bronchoconstriction in guinea pigs
Male Hartley guinea pig weighing about 450 g was anesthetized with sodium pentobarbital (30 mg/kg,i.p.), and the changes in transpulmonary pressure was measured by modifying the method of Konzett-Rossler (J. Harvey, et al., J. Pharmacol. Method. 9, 147-155, 1983) under an artificial ventilation. Bronchoconstrictor response was induced by bolus injection of leukotriene D4 (3 μg/kg,i.v.) from jugular vein. Animal was treated with indomethacin (10 mg/kg,i.v.) and propranolol (1 mg/kg,i.v.) before leukotriene D4 challenge. Test compounds suspended in 5% Gum Arabic solution were administered orally 2 hours before leukotriene D4 challenge.

Question: With `CCCc1c(OCCCCCOc2c(C(C)=O)ccc(OCC(=O)O)c2CCC)ccc(C(C)=O)c1O` [Ref. 2, [4Acetyl-3-[5-(4-acetyl-3-hydroxy-2-propylphenoxy)-pentyloxy]-2-propylpheoxy]acetic acid, reference compound] as the compound, how does the “Inhibition (%)” value (50 mg/kg) read?
Answer: 16.9%

Question: What does the source list for `CCCc1c(OCCCOc2ccc(C(C)=O)c(OCCCC(=O)O)c2CCC)ccc(C(C)=O)c1O` [Example 5, 4-[6-Acetyl-3-[3-(4-acetyl-3-hydroxy-2-propylphenoxy)propoxy]-2-propylphenoxy]butanoic acid]?
Answer: Inhibition (%) (1.5 mg/kg): 27.4%; Inhibition (%) (6.25 mg/kg): 41.7%; Inhibition (%) (12.5 mg/kg): 59.0%; Inhibition (%) (50 mg/kg): 82.7%

Question: Which “Inhibition (%)” value (12.5 mg/kg) does the source give for `CCCc1c(OCCCOc2ccc(C(C)=O)c(OCC(=O)O)c2CCC)ccc(C(C)=O)c1O` [Ref. 1, [6-acetyl-3-[3-(4-acetyl3-hydroxy-2-propylphenoxy)propoxy]-2-propylphenoxy]acetic acid, reference compound] here?
Answer: -12.1%

Question: What about the “Inhibition (%)” value (50 mg/kg) of the same compound?
Answer: 56.1%

Question: What does the source list for `CCCc1c(OCCOc2ccc(C(C)=O)c(OCCCC(=O)O)c2CCC)ccc(C(C)=O)c1O` [Example 6, 4-[6-acetyl-3-[2-(4-acetyl-3-hydroxy-2-propylphenoxy)-ethoxy]-2-propylphenoxy]butanoic acid]?
Answer: Inhibition (%) (12.5 mg/kg): 28.6%; Inhibition (%) (50 mg/kg): 86.6%

Question: `CCCc1c(OCCCCOc2ccc(C(C)=O)c(OCCCC(=O)O)c2CCC)ccc(C(C)=O)c1O` [Example 8, 4-[6-acetyl-3-[4-(4-acetyl-3-hydroxy-2-propylphenoxy)butoxy]-2-propylphenoxy]butanoic acid] was tested. Which “Inhibition (%)” value (50 mg/kg) did it give?
Answer: 83.1%

Question: With `CCCc1c(OCCCOc2ccc(C(C)=O)c(OCCCCC(=O)O)c2CCC)ccc(C(C)=O)c1O` [Example 7, 5-[6-acetyl-3-[3(4-acetyl-3-hydroxy-2-propylphenoxy)propoxy]-2-propylphenoxy]pentanoic acid] as the compound, how does the “Inhibition (%)” value (12.5 mg/kg) read?
Answer: 45.2%

Question: And the “Inhibition (%)” value (50 mg/kg)?
Answer: 94.8%
